From patent US8674095B2, “Compounds for treating neuropsychiatric conditions” (Afraxis Holdings, Inc., priority 2008, dated 2014)

Tested on: PAK1, PAK2, PAK3, PAK-4
Test: PAK isoform inhibition profile of example compounds
Assay type: biochemical
Settings: classification of example compounds in the description; underlying IC50 data in Table 8
From the text: In some embodiments, the PAK inhibitor is a Group I PAK inhibitor that inhibits, for example, one or more Group I PAK polypeptides, for example, PAK1, PAK2, and/or PAK3. […] In some embodiments, the PAK inhibitor is a PAK2 inhibitor. In some embodiments, the PAK inhibitor is a PAK3 inhibitor. In some embodiments, the PAK inhibitor is a mixed PAK1/PAK3 inhibitor. […] In some embodiments, the PAK inhibitor is a Group II PAK inhibitor that inhibits one or more Group II PAK polypeptides, for example PAK-4, PAK5, and/or PAK6. In some embodiments, the PAK inhibitor is a PAK4 inhibitor. In some embodiments, the PAK inhibitor is a PAK5 inhibitor. In some embodiments, the PAK inhibitor is a PAK6 inhibitor.
A fluorescence-based assay format is used to determine IC50 values of test compounds in vitro. Purified PAK kinase is incubated with ATP, and a test compound at various concentrations and a substrate peptide containing two fluorophores. In a second step, the reaction mix is incubated with a site-specific protease that cleaves non-phosphorylated but not phosphorylated substrate peptide, disrupting the FRET signal generated by the two fluorophores in the cleaved peptide (Z′Lyte™ Kinase assay platform; Life Technologies).
Reagents: 50 mM HEPES, pH 7.5; 0.01% BRIJ-35; 10 mM MgCl2; 1 mM EGTA, 2 uM substrate peptide Ser/Thr20 (proprietary Life Technologies Sequence), PAK enzyme [2.42-30.8 ng for PAK1, 0.29-6 ng for PAK2, 1.5-20 ng for PAK3 and 0.1-0.86 ng for PAK4; actual enzyme amounts depend on lot activity of the enzyme preparation]
Test compounds are dissolved in DMSO at various concentrations; the final DMSO concentration in the assay reaction is 1%.
ATP concentration at Km apparent is used in the assay [50 μM ATP for PAK1 assay, 75 μM ATP for PAK2 assay, 100 μM ATP for PAK3 assay, 5 μM ATP for PAK-4 assay] in a total assay volume of […] Assay reactions are incubated at room temperature for 1 hr. Following the kinase reaction, 5 μl of 1:256 dilution of development solution A (Life Technologies) is added and the reaction mix is incubated for an additional 1 hr at room temperature.
Plates are analyzed in a standard fluorescence plate reader (Tecan or equivalent) using an excitation wavelength of 400 nm and emission wavelengths of 445 nm and 520 nm. Inhibition of kinase reaction is determined by emission ratio=emission@445 nm/emission@520 nm

SMILES	PAK inhibitor type (isoform profile)
CN1CCN(c2ccc(Nc3ncc4ccc(=O)n(C5CCc6ccccc6C5)c4n3)cc2)CC1 (stereo not shown) [Compound 19]	mixed PAK1/PAK2/PAK3/PAK-4 inhibitor
CN1CCN(c2ccc(Nc3ncc4ccc(=O)n(Cc5ccccc5OC(F)(F)F)c4n3)cc2)CC1 [Compound 43]	mixed PAK1/PAK2 inhibitor
CN1CCN(c2ccc(Nc3ncc4ccc(=O)n(C5Cc6ccccc6C5)c4n3)cc2)CC1 [Compound 18]	mixed PAK1/PAK-4 inhibitor
O=c1ccc2cnc(Nc3ccc(OC4CCNCC4)cc3)nc2n1Cc1ccccc1C(F)(F)F [Compound 13]	mixed PAK1/PAK2/PAK3/PAK-4 inhibitor
CN1CCN(c2ccc(Nc3ncc4ccc(=O)n(Cc5ccccc5OC(F)F)c4n3)cc2)CC1 [Compound 46]	mixed PAK1/PAK2/PAK3/PAK-4 inhibitor
CN1CCN(c2ccc(Nc3ncc4ccc(=O)n(C5CCC(C)(C)c6ccccc65)c4n3)cc2)CC1 (stereo not shown) [Compound 21]	mixed PAK1/PAK2 inhibitor
CN1CCN(c2ccc(Nc3ncc4ccc(=O)n(CCc5ccccc5)c4n3)cc2)CC1 [Compound 51]	mixed PAK1/PAK2/PAK-4 inhibitor
CN1CCN(c2ccc(Nc3ncc4ccc(=O)n(Cc5ccccc5Cl)c4n3)cc2)CC1 [Compound 33]	mixed PAK1/PAK2 inhibitor
COc1ccc(F)cc1Cn1c(=O)ccc2cnc(Nc3ccc(N4CCN(C)CC4)cc3)nc21 [Compound 56]	PAK1 inhibitor
O=c1c(-c2ccccc2)cc2cnc(Nc3ccc(NC4CCCNC4)cc3)nc2n1Cc1ccccc1C(F)(F)F (stereo not shown) [Compound 121]	inhibits all three Group I PAK isoforms (PAK1, 2 and PAK3) with equal or similar potency
CN1CCN(c2ccc(Nc3ncc4ccc(=O)n(Cc5ccccc5C(F)(F)F)c4n3)cc2)CC1 [Compound 44]	mixed PAK1/PAK2/PAK3/PAK-4 inhibitor
CN1CCN(c2ccc(Nc3ncc4ccc(=O)n(C5CCc6ccccc65)c4n3)cc2)CC1 (stereo not shown) [Compound 7]	PAK1 inhibitor
CN1CCN(c2ccc(Nc3ncc4ccc(=O)n(C5CCCC5)c4n3)cc2)CC1 [Compound 2]	PAK1 inhibitor
O=c1ccc2cnc(Nc3ccc(N4CCNCC4)c(F)c3)nc2n1C1CCc2ccccc2C1 (stereo not shown) [Compound 23]	mixed PAK1/PAK2/PAK3/PAK-4 inhibitor
O=c1ccc2cnc(Nc3ccc(OC4CCCNC4)cc3)nc2n1Cc1ccccc1C(F)(F)F (stereo not shown) [Compound 15]	mixed PAK1/PAK2/PAK3/PAK-4 inhibitor
CN1CCN(c2ccc(Nc3ncc4ccc(=O)n(Cc5ccccc5SC(F)(F)F)c4n3)cc2)CC1 [Compound 45]	mixed PAK1/PAK2/PAK3/PAK-4 inhibitor
CCOc1ccccc1Cn1c(=O)ccc2cnc(Nc3ccc(N4CCN(C)CC4)cc3)nc21 [Compound 64]	inhibits all three Group I PAK isoforms (PAK1, 2 and PAK3) with equal or similar potency
CN(c1ccc(Nc2ncc3ccc(=O)n(Cc4ccccc4C(F)(F)F)c3n2)cc1)C1CCCNC1 (stereo not shown) [Compound 14]	mixed PAK1/PAK2/PAK3/PAK-4 inhibitor
CN1CCN(c2ccc(Nc3ncc4ccc(=O)n(Cc5ccccc5-n5cccn5)c4n3)cc2)CC1 [Compound 55]	PAK1 inhibitor
CN1CCCC(Nc2ccc(Nc3ncc4ccc(=O)n(Cc5ccccc5C(F)(F)F)c4n3)cc2)C1 (stereo not shown) [Compound 63]	mixed PAK1/PAK2/PAK3/PAK-4 inhibitor
COc1ccccc1Cn1c(=O)ccc2cnc(Nc3ccc(N4CCN(C)CC4)cc3)nc21 [Compound 36]	PAK1 inhibitor
O=c1ccc2cnc(Nc3ccc(N4CCNCC4)c(F)c3)nc2n1C1Cc2ccccc2C1 [Compound 22]	mixed PAK1/PAK2/PAK-4 inhibitor
